# US20130210911A1, “METHOD AND COMPOSITION FOR TREATING A DISEASE OR CONDITION RELATED TO OREXIN RECEPTOR 1, OREXIN RECEPTOR 2, SOMATOSTATIN RECEPTOR 2 OR DOPAMINE D2L RECEPTOR” (CENTER LABORATORIES, INC., priority 2009, published 2013)
# Where a name gives a salt, the structure may show the parent alone. Read-outs that look alike come from different tables or passages of the source.
# Experiments:
# Orexin receptor 1 = molecular target: T1, Orexin receptor 1 (Homo sapiens, UniProt O43613); test: biochemical; conditions: for nH (Hill coefficient): human orexin receptor 1 binding
# T1 sequence (O43613 1-425): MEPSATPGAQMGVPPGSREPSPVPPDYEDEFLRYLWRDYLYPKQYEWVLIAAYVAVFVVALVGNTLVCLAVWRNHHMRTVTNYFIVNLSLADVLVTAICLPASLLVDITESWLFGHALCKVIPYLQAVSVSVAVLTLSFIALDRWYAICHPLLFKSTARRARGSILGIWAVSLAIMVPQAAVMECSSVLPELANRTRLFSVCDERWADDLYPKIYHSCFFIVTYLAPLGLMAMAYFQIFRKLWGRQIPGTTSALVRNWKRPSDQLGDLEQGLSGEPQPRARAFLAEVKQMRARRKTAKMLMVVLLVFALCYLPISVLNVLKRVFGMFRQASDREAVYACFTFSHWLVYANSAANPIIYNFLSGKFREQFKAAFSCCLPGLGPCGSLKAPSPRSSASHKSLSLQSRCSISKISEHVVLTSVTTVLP
# Method: (§1) Binding activity was evaluated to assess the selectivity of verapamil on various receptors. The binding activity of the reported receptors was analyzed using the following known methods. Primary screening were performed in duplicate and presented in semi-quantitative data (e.g., IC50, Ki and nH). Where presented, IC50 values were determined by a non-linear, least squares regression analysis using MathIQ™ (ID Bussiness Solutions Ltd., UK). […] Where presented, the Hill coefficient (nH), defining the slope of the competitive binding curve, was calculated using MathIQ™.
# (§2) Orexin receptor 1 or 2 binding affinity was examined using the methods disclosed by Kukkonen et al., (2002) Am J Physiol Cell Physiol. 283:C1567-C1591; and Langmead et al., (2004) Br J Pharmacol. 141(2):340-346. […] Pharmacol. 58:254-264; and Spedding. (1984) M. Eur J Pharmacol. 83:211. Somaostatin receptor 2 binding activity was estimated by the method described by Feniuk et al., (1993) Br J Pharmacol. 110:1156-1164. Adenosine receptor binding activity was examined using the method described by Varani et al., (1996) Br J Pharmacol. 117:1693-1701. Bradykinin receptor binding activity was examined using the methods described by Horlick et al., (1999) Immunopharmacology 43(2-3):169-177; and Phagoo et al., (2001) J Pharmacol Exp Ther 298(1):77-85. Calcium channel (N-type) binding activity was examined using the method disclosed by Moresco et al., (1990) Neurobiol of Aging. 11(4):433-436. Cannabinoid receptor binding activity was examined using the method disclosed by Reggio et al., (1998) J Med Chem 41(26):5177-5187. […] Estrogen receptors (including ERα and ERβ) were examined using the method disclosed by Obourn et al., (1993) Biochem 32:6229-6236. GABA receptor (including GABAA and GABAB1A,) binding activity was examined using methods disclosed by Lewin et al., (1989) Mol Pharmacol 35:189-194; Maksay G. (1993) Eur J Pharmacol 246:255-260; Enna and Snyder, (1977) Mol Pharmacol. 13:442-453; Martini et al., (1983) J Neurochem. […] Leptin receptor binding activity was examined using the method disclosed by Fong et al., (1998) Mol Pharmacol 53:234-240. […] 75(6):2590-2601. Tachykinin receptor binding activity was examined using the method disclosed by Patacchini and Maggi, (1995) Arch Int Pharmacodyn. 329:161-184. Vanilloid receptor binding activity was examined using the methods disclosed by Szallasi et al., (1993) J Pharmacol Exp Ther. 267(2):728-733. Melatonin receptor binding activity was examined using the methods disclosed by Beresford et al., (1998) J Pharmacol Exp Ther 285(3):1239-1245; and Paul et al., (1999) J Pharmacol Exp Ther 290(1):334-340. Serotonin receptor binding activity was examined using the methods disclosed by Bonhaus et al., (1995) Br J Pharmacol 115:622-628; and Saucier and Albert (1997) J. Neuorchem 68:1998-2011.
# Orexin receptor 2 = molecular target: T2, Orexin receptor 2 (Homo sapiens, UniProt O43614); test: biochemical; conditions: for nH (Hill coefficient): human orexin receptor 2 binding
# T2 sequence (O43614 1-444): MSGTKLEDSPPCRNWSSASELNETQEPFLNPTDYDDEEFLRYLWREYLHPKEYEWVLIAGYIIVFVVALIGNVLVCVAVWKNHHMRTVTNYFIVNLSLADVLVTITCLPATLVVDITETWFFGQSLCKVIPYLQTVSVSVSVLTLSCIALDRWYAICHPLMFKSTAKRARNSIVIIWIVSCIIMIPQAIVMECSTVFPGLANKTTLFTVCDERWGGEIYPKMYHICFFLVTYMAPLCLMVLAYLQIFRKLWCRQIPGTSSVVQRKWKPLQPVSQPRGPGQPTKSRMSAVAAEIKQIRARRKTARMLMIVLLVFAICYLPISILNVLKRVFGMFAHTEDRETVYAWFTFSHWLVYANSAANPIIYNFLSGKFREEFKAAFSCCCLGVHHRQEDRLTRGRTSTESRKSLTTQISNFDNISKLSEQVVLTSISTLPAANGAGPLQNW
# Method: as §1, §2
# Sodium Channel, Site 2 = test: Sodium channel, site 2 binding assay; parameters: species or system rat
# Somatostatin receptor 2 = Somatostatin receptor 2 (Cavia porcellus, UniProt A0A286XKC5); test: Somatostatin tissue assay; conditions: guinea pig tissue
# Sequence of Somatostatin receptor 2 (A0A286XKC5 1-368): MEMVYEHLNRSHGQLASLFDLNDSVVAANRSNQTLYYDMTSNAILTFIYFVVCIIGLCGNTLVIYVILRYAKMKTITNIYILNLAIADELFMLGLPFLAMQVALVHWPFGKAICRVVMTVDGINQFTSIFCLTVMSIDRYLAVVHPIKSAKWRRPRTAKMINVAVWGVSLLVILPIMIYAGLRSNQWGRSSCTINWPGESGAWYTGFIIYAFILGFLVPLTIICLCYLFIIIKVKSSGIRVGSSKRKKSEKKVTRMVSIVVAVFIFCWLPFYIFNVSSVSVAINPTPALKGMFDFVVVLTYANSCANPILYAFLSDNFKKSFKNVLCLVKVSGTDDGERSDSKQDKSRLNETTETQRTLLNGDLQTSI
# Source text: (§3) Orexin receptor 1 or 2 binding affinity was examined using the methods disclosed by Kukkonen et al., (2002) Am J Physiol Cell Physiol. 283:C1567-C1591; and Langmead et al., (2004) Br J Pharmacol. 141(2):340-346. […] Pharmacol. 58:254-264; and Spedding. (1984) M. Eur J Pharmacol. 83:211. Somaostatin receptor 2 binding activity was estimated by the method described by Feniuk et al., (1993) Br J Pharmacol. 110:1156-1164. Adenosine receptor binding activity was examined using the method described by Varani et al., (1996) Br J Pharmacol. 117:1693-1701. Bradykinin receptor binding activity was examined using the methods described by Horlick et al., (1999) Immunopharmacology 43(2-3):169-177; and Phagoo et al., (2001) J Pharmacol Exp Ther 298(1):77-85. Calcium channel (N-type) binding activity was examined using the method disclosed by Moresco et al., (1990) Neurobiol of Aging. 11(4):433-436. Cannabinoid receptor binding activity was examined using the method disclosed by Reggio et al., (1998) J Med Chem 41(26):5177-5187. […] Estrogen receptors (including ERα and ERβ) were examined using the method disclosed by Obourn et al., (1993) Biochem 32:6229-6236. […]
# Dopamine D2L receptor = Dopamine D2L receptor (Homo sapiens, UniProt P14416)
# Sequence of Dopamine D2L receptor (P14416 whole entry): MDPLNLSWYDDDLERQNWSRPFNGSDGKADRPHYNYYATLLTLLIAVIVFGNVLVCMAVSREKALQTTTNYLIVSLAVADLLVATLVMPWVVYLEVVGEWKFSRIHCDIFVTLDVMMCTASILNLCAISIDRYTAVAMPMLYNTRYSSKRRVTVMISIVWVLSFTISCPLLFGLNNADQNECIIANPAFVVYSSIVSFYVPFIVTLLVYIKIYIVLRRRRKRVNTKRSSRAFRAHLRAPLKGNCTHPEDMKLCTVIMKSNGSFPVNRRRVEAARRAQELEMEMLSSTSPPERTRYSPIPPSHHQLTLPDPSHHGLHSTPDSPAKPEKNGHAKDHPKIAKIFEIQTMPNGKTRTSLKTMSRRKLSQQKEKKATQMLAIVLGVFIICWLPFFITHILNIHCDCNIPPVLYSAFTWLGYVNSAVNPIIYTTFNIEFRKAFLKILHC
# Source text: as §3
# N-type calcium channel = N-type calcium channel (Rattus norvegicus, UniProt Q02294); test: Calcium channel (N-type) binding activity; conditions: data not shown
# Sequence of N-type calcium channel (P54287 whole entry): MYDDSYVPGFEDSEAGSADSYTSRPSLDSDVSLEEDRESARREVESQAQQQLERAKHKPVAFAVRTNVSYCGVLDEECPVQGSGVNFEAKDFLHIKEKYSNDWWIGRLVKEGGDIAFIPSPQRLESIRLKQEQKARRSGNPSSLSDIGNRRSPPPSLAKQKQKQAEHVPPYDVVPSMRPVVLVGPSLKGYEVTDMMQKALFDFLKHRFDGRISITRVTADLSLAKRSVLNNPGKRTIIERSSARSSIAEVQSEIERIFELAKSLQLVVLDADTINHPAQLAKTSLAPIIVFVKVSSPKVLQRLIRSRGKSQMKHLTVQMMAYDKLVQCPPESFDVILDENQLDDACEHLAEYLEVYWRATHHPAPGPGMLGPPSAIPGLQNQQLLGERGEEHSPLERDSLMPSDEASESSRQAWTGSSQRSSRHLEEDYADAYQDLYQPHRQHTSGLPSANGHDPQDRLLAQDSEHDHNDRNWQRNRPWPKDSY
# Sequence of N-type calcium channel (P54290 945-1091, further chain): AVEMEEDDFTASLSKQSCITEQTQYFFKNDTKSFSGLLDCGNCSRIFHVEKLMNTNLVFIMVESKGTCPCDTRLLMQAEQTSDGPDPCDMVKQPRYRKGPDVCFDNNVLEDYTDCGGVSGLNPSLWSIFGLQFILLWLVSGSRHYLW
# Sequence of N-type calcium channel (Q02294 whole entry): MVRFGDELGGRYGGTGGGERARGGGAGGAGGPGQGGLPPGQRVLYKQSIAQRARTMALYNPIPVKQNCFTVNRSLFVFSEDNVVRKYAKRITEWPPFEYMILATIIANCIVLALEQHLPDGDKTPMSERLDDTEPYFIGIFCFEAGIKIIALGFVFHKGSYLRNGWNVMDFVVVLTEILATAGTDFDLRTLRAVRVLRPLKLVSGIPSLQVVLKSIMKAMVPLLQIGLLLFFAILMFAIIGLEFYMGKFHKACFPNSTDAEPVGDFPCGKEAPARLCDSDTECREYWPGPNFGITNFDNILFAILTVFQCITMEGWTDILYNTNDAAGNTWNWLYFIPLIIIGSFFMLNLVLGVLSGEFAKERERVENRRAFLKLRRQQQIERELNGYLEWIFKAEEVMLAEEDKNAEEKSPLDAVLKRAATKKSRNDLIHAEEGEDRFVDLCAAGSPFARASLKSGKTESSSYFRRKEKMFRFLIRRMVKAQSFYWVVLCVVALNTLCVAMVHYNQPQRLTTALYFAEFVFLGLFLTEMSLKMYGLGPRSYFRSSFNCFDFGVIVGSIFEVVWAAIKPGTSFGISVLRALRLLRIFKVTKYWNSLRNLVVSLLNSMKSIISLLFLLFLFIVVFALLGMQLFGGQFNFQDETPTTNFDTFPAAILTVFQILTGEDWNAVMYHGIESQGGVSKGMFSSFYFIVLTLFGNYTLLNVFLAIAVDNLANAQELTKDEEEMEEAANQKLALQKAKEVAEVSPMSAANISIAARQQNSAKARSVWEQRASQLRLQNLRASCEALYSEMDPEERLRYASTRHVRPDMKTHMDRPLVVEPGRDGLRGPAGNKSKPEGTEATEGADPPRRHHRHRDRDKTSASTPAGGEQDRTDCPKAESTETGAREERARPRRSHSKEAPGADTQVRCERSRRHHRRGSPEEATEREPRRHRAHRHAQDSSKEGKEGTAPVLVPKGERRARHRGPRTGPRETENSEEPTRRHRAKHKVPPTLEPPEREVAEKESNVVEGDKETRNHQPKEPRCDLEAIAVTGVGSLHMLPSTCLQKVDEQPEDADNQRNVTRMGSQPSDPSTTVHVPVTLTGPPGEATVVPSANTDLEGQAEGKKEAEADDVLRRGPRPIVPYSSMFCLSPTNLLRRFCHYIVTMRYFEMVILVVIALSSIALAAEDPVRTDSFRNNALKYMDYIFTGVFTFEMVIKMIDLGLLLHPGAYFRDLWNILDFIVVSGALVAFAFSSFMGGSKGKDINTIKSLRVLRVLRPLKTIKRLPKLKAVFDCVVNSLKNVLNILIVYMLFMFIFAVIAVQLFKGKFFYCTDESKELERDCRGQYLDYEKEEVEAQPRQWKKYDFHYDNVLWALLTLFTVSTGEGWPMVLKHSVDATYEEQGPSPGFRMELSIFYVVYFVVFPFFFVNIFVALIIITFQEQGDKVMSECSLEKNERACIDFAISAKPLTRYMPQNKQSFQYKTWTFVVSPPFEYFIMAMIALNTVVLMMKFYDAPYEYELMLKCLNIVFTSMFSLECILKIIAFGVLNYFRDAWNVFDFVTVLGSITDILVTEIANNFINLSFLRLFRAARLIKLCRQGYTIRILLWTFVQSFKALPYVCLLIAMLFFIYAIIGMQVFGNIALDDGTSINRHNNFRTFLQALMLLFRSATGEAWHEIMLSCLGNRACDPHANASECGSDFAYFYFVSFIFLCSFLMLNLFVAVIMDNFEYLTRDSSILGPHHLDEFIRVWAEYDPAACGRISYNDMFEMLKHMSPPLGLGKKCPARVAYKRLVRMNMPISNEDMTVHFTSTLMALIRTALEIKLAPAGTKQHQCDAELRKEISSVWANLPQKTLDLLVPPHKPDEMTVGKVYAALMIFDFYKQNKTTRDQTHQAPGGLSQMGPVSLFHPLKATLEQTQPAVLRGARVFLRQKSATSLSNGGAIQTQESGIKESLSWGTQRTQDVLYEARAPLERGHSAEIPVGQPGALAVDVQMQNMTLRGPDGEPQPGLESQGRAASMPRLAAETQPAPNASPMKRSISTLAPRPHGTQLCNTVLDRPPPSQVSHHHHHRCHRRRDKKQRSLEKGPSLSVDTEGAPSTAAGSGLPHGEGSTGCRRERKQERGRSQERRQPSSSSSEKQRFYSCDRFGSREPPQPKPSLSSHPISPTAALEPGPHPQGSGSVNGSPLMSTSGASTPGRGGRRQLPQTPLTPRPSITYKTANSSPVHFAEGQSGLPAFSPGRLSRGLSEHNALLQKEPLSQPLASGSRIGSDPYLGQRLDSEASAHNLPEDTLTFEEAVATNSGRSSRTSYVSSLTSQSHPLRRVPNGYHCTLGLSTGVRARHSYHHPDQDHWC
# Sequence of N-type calcium channel (P54290 25-944, further chain): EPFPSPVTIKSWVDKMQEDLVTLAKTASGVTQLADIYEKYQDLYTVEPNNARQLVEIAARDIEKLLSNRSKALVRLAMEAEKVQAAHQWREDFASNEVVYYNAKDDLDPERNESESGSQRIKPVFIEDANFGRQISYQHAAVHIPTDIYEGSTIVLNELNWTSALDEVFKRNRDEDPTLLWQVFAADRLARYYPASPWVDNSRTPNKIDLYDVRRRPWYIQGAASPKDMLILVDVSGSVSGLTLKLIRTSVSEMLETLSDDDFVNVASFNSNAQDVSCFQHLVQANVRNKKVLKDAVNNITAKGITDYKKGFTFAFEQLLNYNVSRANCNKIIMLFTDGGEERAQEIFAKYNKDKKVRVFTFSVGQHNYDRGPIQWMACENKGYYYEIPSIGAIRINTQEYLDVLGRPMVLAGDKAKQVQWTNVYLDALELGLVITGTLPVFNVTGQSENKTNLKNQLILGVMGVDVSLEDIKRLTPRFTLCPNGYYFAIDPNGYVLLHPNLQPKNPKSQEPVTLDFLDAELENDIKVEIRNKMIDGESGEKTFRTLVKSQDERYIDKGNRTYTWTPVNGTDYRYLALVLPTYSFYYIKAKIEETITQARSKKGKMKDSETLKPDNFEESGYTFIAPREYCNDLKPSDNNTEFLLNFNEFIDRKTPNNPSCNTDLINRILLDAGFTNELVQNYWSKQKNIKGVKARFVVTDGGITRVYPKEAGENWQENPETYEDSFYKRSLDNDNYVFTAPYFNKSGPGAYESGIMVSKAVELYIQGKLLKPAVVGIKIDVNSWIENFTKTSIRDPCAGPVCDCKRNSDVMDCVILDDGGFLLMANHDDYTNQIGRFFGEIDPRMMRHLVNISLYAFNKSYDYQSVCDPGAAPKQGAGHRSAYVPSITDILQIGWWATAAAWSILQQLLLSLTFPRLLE
# Source text: (§4) Pharmacol. 58:254-264; and Spedding. (1984) M. Eur J Pharmacol. 83:211. […] 11(4):433-436. […] 75(6):2590-2601. […] 329:161-184.
# Serotonin receptor = conditions: data not shown
# Method: as §1
# Orexin receptor 1 or 2 binding affinity was examined using the methods disclosed by Kukkonen et al., (2002) Am J Physiol Cell Physiol. 283:C1567-C1591; and Langmead et al., (2004) Br J Pharmacol. 141(2):340-346. […] Pharmacol. 58:254-264; and Spedding. (1984) M. Eur J Pharmacol. 83:211. Somaostatin receptor 2 binding activity was estimated by the method described by Feniuk et al., (1993) Br J Pharmacol. 110:1156-1164. Adenosine receptor binding activity was examined using the method described by Varani et al., (1996) Br J Pharmacol. 117:1693-1701. Bradykinin receptor binding activity was examined using the methods described by Horlick et al., (1999) Immunopharmacology 43(2-3):169-177; and Phagoo et al., (2001) J Pharmacol Exp Ther 298(1):77-85. […]
# Melatonin receptor = Melatonin receptor binding activity; conditions: data not shown
# Source text: as §4
SMILES,inhibition at 300 µM (Orexin receptor 1) [%],nH (Hill coefficient) (Orexin receptor 1),inhibition at 100 µM (Orexin receptor 2) [%],nH (Hill coefficient) (Orexin receptor 2),"% Inhibition (Sodium Channel, Site 2; rat sodium channel site 2, conc. 10 μM) [%]",AG. (%) (agonist) (Somatostatin receptor 2; conc. 3 μM),ANT. (%) (antagonist) (Dopamine D2L receptor; conc. 10 μM),binding (in words) (N-type calcium channel),binding (in words) (Serotonin receptor),binding (in words) (Melatonin receptor),inhibition at 100 µM (Orexin receptor 1) [%],"% Inhibition (Sodium Channel, Site 2; rat sodium channel site 2, conc. 3 μM) [%]",AG. (%) (agonist) (Somatostatin receptor 2; conc. 0.3 μM),ANT. (%) (antagonist) (Dopamine D2L receptor; conc. 3 μM)
COc1ccc(CCN(C)CCC[C@](C#N)(c2ccc(OC)c(OC)c2)C(C)C)cc1OC [(R)-(+)-verapamil hydrochloride],57,1.31,56,1.81,72,69,58,significant binding,significant binding,significant binding,,,,
COc1ccc(CCN(C)CCC[C@@](C#N)(c2ccc(OC)c(OC)c2)C(C)C)cc1OC [(S)-(−)-verapamil hydrochloride],,1.27,79,1.33,,,,significant binding,significant binding,significant binding,58,75,61,66
